Data taken from patent US9328099B2, “Cyanomethylpyrazole carboxamides as janus kinase inhibitors” (Merck Sharp & Dohme Corp., priority 2011, dated 2016).

Key:
JAK1 = JAK1 (Homo sapiens (Human), UniProt P23458); assay: Jak Biochemical HTRF Assay, JAK1; conditions: HTRF biochemical assay, GST-tagged catalytic domain; top concentration tested […]; read-out: JAK1 IC50
Excerpt: (§1) Jak Biochemical HTRF Assay Protocol
(§2) Subsequent reagent additions employed an Agilent Bravo.

JAK2 = JAK2 (Homo sapiens (Human), UniProt O60674); assay: Jak Biochemical HTRF Assay, JAK2; conditions: HTRF biochemical assay, GST-tagged catalytic domain; top concentration tested […]
Chain of JAK2 (O60674 849-1124): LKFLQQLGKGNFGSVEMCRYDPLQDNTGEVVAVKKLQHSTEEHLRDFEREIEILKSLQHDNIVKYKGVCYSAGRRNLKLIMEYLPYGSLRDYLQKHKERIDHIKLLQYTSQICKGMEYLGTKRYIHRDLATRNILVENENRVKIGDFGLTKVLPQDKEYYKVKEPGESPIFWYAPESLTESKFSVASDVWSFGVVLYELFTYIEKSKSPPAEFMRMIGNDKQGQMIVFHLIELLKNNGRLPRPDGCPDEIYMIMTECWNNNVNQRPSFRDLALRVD
Excerpt: as §1, §2

Chain of JAK1 (P23458 875-1153): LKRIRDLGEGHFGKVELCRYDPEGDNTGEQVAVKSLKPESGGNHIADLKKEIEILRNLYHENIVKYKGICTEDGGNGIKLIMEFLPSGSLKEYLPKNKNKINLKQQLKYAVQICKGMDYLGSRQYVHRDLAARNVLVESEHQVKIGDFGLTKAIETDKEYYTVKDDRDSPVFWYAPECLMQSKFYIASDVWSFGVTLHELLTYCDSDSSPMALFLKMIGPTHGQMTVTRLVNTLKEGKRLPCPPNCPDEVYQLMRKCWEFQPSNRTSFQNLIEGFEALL

IC50 (JAK1) [nM]	IC50 (JAK2) [nM]	Structure (SMILES)
4	183	CC(C)(C)OC(=O)N1CCC(CC#N)(n2cc(C(N)=O)c(Nc3ccc(F)cn3)n2)CC1 [Example 13-4, tert-butyl 4-(4-carbamoyl-3-(5-fluoropyridin-2-ylamino)-1H-pyrazol-1-yl)-4-(cyanomethyl)piperidine-1-carboxylate]
0.06	0.6	N#CCC1(n2cc(C(N)=O)c(Nc3ccc(C(O)C(F)(F)F)nc3)n2)CCN(C(=O)OCC(F)(F)F)CC1 (stereo not drawn) [Example 10-3, 2,2,2-trifluoroethyl 4-(4-carbamoyl-3-(6-(2,2,2-trifluoro-1-hydroxyethyl)pyridin-3-ylamino)-1H-pyrazol-1-yl)-4-(cyanomethyl)piperidine-1-carboxylate]
2	83	CC(C)(C)OC(=O)N1CC[C@](CC#N)(n2cc(C(N)=O)c(Nc3ccc(F)cc3)n2)[C@@H](F)C1 (single isomer, unassigned) [Example 47-4, tert-butyl (3S,4R or 3R,4S)-4-{4-carbamoyl-3-[(4-fluorophenyl)amino]-1H-pyrazol-1-yl}-4-(cyanomethyl)-3-fluoropiperidine-1-carboxylate]
3	96	N#CCC1(n2cc(C(N)=O)c(Nc3ccnc(F)c3)n2)CCN(C(=O)OC2CCOCC2)CC1 [Example 30-17, tetrahydro-2H-pyran-4-yl 4-{4-carbamoyl-3-[(2-fluoropyridin-4-yl)amino]-1H-pyrazol-1-yl}-4-(cyanomethyl)piperidine-1-carboxylate]
0.9	33	N#CCC1(n2cc(C(N)=O)c(Nc3ccc(F)cc3)n2)CCN(C(=O)OC2CCC2)CC1 [Example 30-4, cyclobutyl 4-(4-carbamoyl-3-(4-fluorophenylamino)-1H-pyrazol-1-yl)-4-(cyanomethyl)piperidine-1-carboxylate]
29	614	C[C@@H]1C[C@](CC#N)(n2cc(C(N)=O)c(Nc3ccccc3)n2)CCN1C(=O)OC(C)(C)C (racemic) [Example 2-11, tert-butyl (2R,4R and 2S,4S)-4-[4-carbamoyl-3-(phenylamino)-1H-pyrazol-1-yl]-4-(cyanomethyl)-2-methylpiperidine-1-carboxylate]
0.2	9	C[C@H](OC(=O)N1CCC(CC#N)(n2cc(C(N)=O)c(Nc3ccnc(F)c3)n2)CC1)C1CC1 [Example 30-77, (1S)-1-cyclopropylethyl 4-{4-carbamoyl-3-[(2-fluoropyridin-4-yl)amino]-1H-pyrazol-1-yl}-4-(cyanomethyl)piperidine-1-carboxylate]

The next lines start with the compound.

Structure (SMILES)	IC50 (JAK1) [nM]	IC50 (JAK2) [nM]
Cc1ccc(F)cc1N1CCC(CC#N)(n2cc(C(N)=O)c(Nc3ccc(F)cc3)n2)CC1 [Example 3-32, 1-[4-(cyanomethyl)-1-(5-fluoro-2-methylphenyl)piperidin-4-yl]-3-[(4-fluorophenyl)amino]-1H-pyrazole-4-carboxamide]	204	> 1500
N#CCC1(n2cc(C(N)=O)c(Nc3ccccc3)n2)CN(C(=O)Nc2ccc(C#N)cc2)C1 [Example 38-15, 1-{3-(cyanomethyl)-1-[(4-cyanophenyl)carbamoyl]azetidin-3-yl}-3-(phenylamino)-1H-pyrazole-4-carboxamide]	0.9	21
N#CCC1(n2cc(C(N)=O)c(Nc3ccnc(F)c3)n2)CCC(Nc2ccc(F)cc2)CC1 (stereo not drawn) [Example 40-40, Cis or trans 1-{1-(cyanomethyl)-4-[(4-fluorophenyl)amino]cyclohexyl}-3-[(2-fluoropyridin-4-yl)amino]-1H-pyrazole-4-carboxamide]	0.2	9
N#CCC1(n2cc(C(N)=O)c(Nc3ccnc(F)c3)n2)CCC(N2CCc3ccccc32)CC1 (stereo not drawn) [Example 40-54, Cis or trans 1-[1-(cyanomethyl)-4-(2,3-dihydro-1H-indol-1-yl)cyclohexyl]-3-[(2-fluoropyridin-4-yl)amino]-1H-pyrazole-4-carboxamide]	0.9	24
N#CCC1(n2cc(C(N)=O)c(Nc3ccnc(F)c3)n2)CCC(NC2CCCCC2)CC1 (stereo not drawn) [Example 40-23, Cis or trans 1-[1-(cyanomethyl)-4-(cyclohexylamino)cyclohexyl]-3-[(2-fluoropyridin-4-yl)amino]-1H-pyrazole-4-carboxamide]	2	237
N#CCC1(n2cc(C(N)=O)c(Nc3ccnc(F)c3)n2)CCN(Cc2ccco2)CC1 [Example 22-19, 1-[4-(cyanomethyl)-1-(furan-2-ylmethyl)piperidin-4-yl]-3-[(2-fluoropyridin-4-yl)amino]-1H-pyrazole-4-carboxamide]	0.7	25
N#CCC1(n2cc(C(N)=O)c(Nc3ccc(F)cc3)n2)CCN(c2ccc(F)cc2)CC1 [Example 3-38, 1-[4-(cyanomethyl)-1-(4-fluorophenyl)piperidin-4-yl]-3-[(4-fluorophenyl)amino]-1H-pyrazole-4-carboxamide]	2	37
N#CCC1(n2cc(C(N)=O)c(Nc3ccccc3)n2)CN(S(=O)(=O)C(F)(F)F)C1 [Example 37-18, 1-{3-(cyanomethyl)-1-[(trifluoromethyl)sulfonyl]azetidin-3-yl}-3-(phenylamino)-1H-pyrazole-4-carboxamide]	159	585
COc1cncc(N2CCC(CC#N)(n3cc(C(N)=O)c(Nc4ccc(F)cc4)n3)CC2)c1 [Example 3-37, 1-[4-(cyanomethyl)-1-(5-methoxypyridin-3-yl)piperidin-4-yl]-3-[(4-fluorophenyl)amino]-1H-pyrazole-4-carboxamide]	0.6	17
N#CCC1(n2cc(C(N)=O)c(Nc3ccnc(F)c3)n2)CCN(C(=O)C2(C(F)(F)F)CCC2)CC1 [Example 34-51, 1-[4-(cyanomethyl)-1-{[1-(trifluoromethyl)cyclobutyl]carbonyl}piperidin-4-yl]-3-[(2-fluoropyridin-4-yl)amino]-1H-pyrazole-4-carboxamide]	4	37
N#CCC1(n2cc(C(N)=O)c(Nc3ccccc3)n2)CCN(C(=O)c2ccccc2-c2ccccc2)CC1 [Example 34-29, 1-[1-(biphenyl-2-ylcarbonyl)-4-(cyanomethyl)piperidin-4-yl]-3-(phenylamino)-1H-pyrazole-4-carboxamide]	387	1480
N#CCC1(n2cc(C(N)=O)c(Nc3ccccc3)n2)CCN(C(=O)c2cccc(Cl)c2)CC1 [Example 34-21, l-{l-[(3-chlorophenyl)carbonyl]-4-(cyanomethyl)piperidin-4-yl}-3-(phenylamino)-lH-pyrazole-4-carboxamide]	4	63
N#CCC1(n2cc(C(N)=O)c(Nc3ccccc3)n2)CN(C(=O)NC2CCCCC2)C1 [Example 38-2, 1-[3-(cyanomethyl)-1-(cyclohexylcarbamoyl)azetidin-3-yl]-3-(phenylamino)-1H-pyrazole-4-carboxamide]	20	628
CS(=O)(=O)c1ccc(Nc2nn(C3(CC#N)CCN(C(=O)CC#N)CC3)cc2C(N)=O)cc1 [Example 36-2, 1-[1-(cyanoacetyl)-4-(cyanomethyl)piperidin-4-yl]-3-{[4-(methylsulfonyl)phenyl]amino}-1H-pyrazole-4-carboxamide]	0.6	10
